Legend:
SNK-6 (IL-2 2.5 ng/mL) [1] = assay: percent inhibition of viability; higher = more inhibition; settings: 72 h
[2] = tested on: normal primary NK cells, pool 1 (3 donors) (IL-2 2.5 ng/mL); assay: as above; settings: 72 h
KAI3 (IL-2 2.5 ng/mL) [3] = assay: as above; settings: 72 h
NK-YS (IL-2 2.5 ng/mL) [4] = assay: as above; settings: 72 h
NKL (IL-2 2.5 ng/mL) [5] = assay: as above; settings: 72 h
DERL-7 (IL-2 2.5 ng/mL) [6] = assay: as above; settings: 72 h
NK-92 (IL-2 2.5 ng/mL) [7] = assay: as above; settings: 72 h
[8] = tested on: normal primary NK cells, pool 1 (3 donors), resting (IL-2 0 ng/mL); assay: as above; settings: 72 h
IMC-1 (IL-2 20 ng/mL) [9] = assay: as above; settings: 72 h
[10] = tested on: normal primary NK cells, pool 2 (3 donors) (IL-2 2.5 ng/mL); assay: as above; settings: 72 h
[11] = tested on: normal primary NK cells, pool 3 (3 donors) (IL-2 2.5 ng/mL); assay: as above; settings: 72 h
YT (IL-2 2.5 ng/mL) [12] = assay: as above; settings: 72 h
KHYG-1 (IL-2 2.5 ng/mL) [13] = assay: as above; settings: 72 h
[14] = tested on: normal NK cells expanded with K562-aAPC; assay: drug sensitivity score (DSS) (DSS units); higher = more sensitive; extreme values may be limits of the assay; settings: 72 h; IL-2 2.5 ng/mL
Description: (§1)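 Drug sensitivity and resistance testing on K562-aAPC-expanded normal NK cells: 5 concentrations (10-fold steps over a 10,000-fold range), 72 h at 37 °C, viability by CellTiter-Glo normalised to DMSO and benzethonium chloride controls; DSS from the fitted curve.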

SNK-6 (IL-2 2.5 ng/mL) [15] = assay: as above; settings: 72 h
[16] = tested on: normal primary NK cells, pool 1 (3 donors) (IL-2 2.5 ng/mL); assay: as above; settings: 72 h
KAI3 (IL-2 2.5 ng/mL) [17] = assay: as above; settings: 72 h
NK-YS (IL-2 2.5 ng/mL) [18] = assay: as above; settings: 72 h
NKL (IL-2 2.5 ng/mL) [19] = assay: as above; settings: 72 h
DERL-7 (IL-2 2.5 ng/mL) [20] = assay: as above; settings: 72 h
NK-92 (IL-2 2.5 ng/mL) [21] = assay: as above; settings: 72 h
[22] = tested on: normal primary NK cells, pool 1 (3 donors), resting (IL-2 0 ng/mL); assay: as above; settings: 72 h
IMC-1 (IL-2 20 ng/mL) [23] = assay: as above; settings: 72 h
[24] = tested on: normal primary NK cells, pool 2 (3 donors) (IL-2 2.5 ng/mL); assay: as above; settings: 72 h
[25] = tested on: normal primary NK cells, pool 3 (3 donors) (IL-2 2.5 ng/mL); assay: as above; settings: 72 h
YT (IL-2 2.5 ng/mL) [26] = assay: as above; settings: 72 h
KHYG-1 (IL-2 2.5 ng/mL) [27] = assay: as above; settings: 72 h
[28] = tested on: normal NK cells expanded with K562-aAPC; assay: percent inhibition of viability; higher = more inhibition; settings: 72 h, IL-2 2.5 ng/mL
Description: as §1

CCc1cnn2c(NCc3ccc[n+]([O-])c3)cc(N3CCCC[C@H]3CCO)nc12 [Dinaciclib] (max concentration tested 1000 nM)
percent inhibition of viability [%]
Settings	0.1 nM	1 nM	10 nM	100 nM	1000 nM
DERL-7 (IL-2 2.5 ng/mL) [6]	3.44	0.2	31.4	100	101
IMC-1 (IL-2 20 ng/mL) [9]	-1.04	-1.9	44	99.7	102
KAI3 (IL-2 2.5 ng/mL) [3]	5.48	7.7	54.5	108	110
KHYG-1 (IL-2 2.5 ng/mL) [13]	-3.45	-3.48	42.5	109	112
NK-92 (IL-2 2.5 ng/mL) [7]	-2.1	2.09	67.9	108	111
NK-YS (IL-2 2.5 ng/mL) [4]	-6.76	-1.49	87.6	104	109
NKL (IL-2 2.5 ng/mL) [5]	4.95	3.07	88.7	109	112
SNK-6 (IL-2 2.5 ng/mL) [1]	-7.12	-37	81.4	47.2	48.2
YT (IL-2 2.5 ng/mL) [12]	-2.44	2.09	93.8	108	111
[2]	-4.8	3.36	45.1	98.6	98.7
[8]	-4.86	1	21.3	91.6	92.6
[10]	-6.55	2.06	90.3	97.1	94.6
[11]	-4.86	2.55	72	99.3	100
[28]	-4.8	-2.24	30.3	101	102

Settings	drug sensitivity score
DERL-7 (IL-2 2.5 ng/mL) [20]	22.5
IMC-1 (IL-2 20 ng/mL) [23]	23.7
KAI3 (IL-2 2.5 ng/mL) [17]	24.6
KHYG-1 (IL-2 2.5 ng/mL) [27]	23.6
NK-92 (IL-2 2.5 ng/mL) [21]	25.9
NK-YS (IL-2 2.5 ng/mL) [18]	28.3
NKL (IL-2 2.5 ng/mL) [19]	28.8
SNK-6 (IL-2 2.5 ng/mL) [15]	23.7
YT (IL-2 2.5 ng/mL) [26]	29.8
[14]	22.4
[16]	23.2
[22]	20
[24]	28.8
[25]	26.6

CO[C@H]1C[C@@H]2CC[C@@H](C)[C@@](O)(O2)C(=O)C(=O)N2CCCC[C@H]2C(=O)O[C@H]([C@H](C)C[C@@H]2CC[C@@H](OCCO)[C@H](OC)C2)CC(=O)[C@H](C)/C=C(\C)[C@@H](O)[C@@H](OC)C(=O)[C@H](C)C[C@H](C)/C=C/C=C/C=C/1C [Everolimus] (max concentration tested 100 nM)
percent inhibition of viability [%]
Settings	0.01 nM	0.1 nM	1 nM	10 nM	100 nM
DERL-7 (IL-2 2.5 ng/mL) [6]	-6.16	5.85	26.6	49.4	52.4
IMC-1 (IL-2 20 ng/mL) [9]	-0.49	-3.23	-12.1	-39.5	-47.1
KAI3 (IL-2 2.5 ng/mL) [3]	-3.78	2.36	31.4	45.3	37.6
KHYG-1 (IL-2 2.5 ng/mL) [13]	-2.44	-5.06	0.91	30.6	28.2
NK-92 (IL-2 2.5 ng/mL) [7]	-9.11	-13.2	0.14	10.7	17
NK-YS (IL-2 2.5 ng/mL) [4]	-2.59	2.94	38.2	47.2	45.8
NKL (IL-2 2.5 ng/mL) [5]	4.18	17.6	36.9	46	43.3
SNK-6 (IL-2 2.5 ng/mL) [1]	5.61	27	39.2	45.4	42.4
YT (IL-2 2.5 ng/mL) [12]	0.19	-0.65	15.8	38.4	37
[2]	-12.5	-14.8	-8.5	3.67	5.77
[8]	-9.7	-10.5	-6.43	11.5	21.5
[10]	-7.7	-1.98	0.82	5.73	4.97
[11]	-12.6	-4.69	-3.14	-1.42	-2.25
[28]	-0.77	-3.8	-2.52	2.05	0.46

Settings	drug sensitivity score
DERL-7 (IL-2 2.5 ng/mL) [20]	12.3
IMC-1 (IL-2 20 ng/mL) [23]	0
KAI3 (IL-2 2.5 ng/mL) [17]	12.1
KHYG-1 (IL-2 2.5 ng/mL) [27]	5.27
NK-92 (IL-2 2.5 ng/mL) [21]	1.27
NK-YS (IL-2 2.5 ng/mL) [18]	13.5
NKL (IL-2 2.5 ng/mL) [19]	14.5
SNK-6 (IL-2 2.5 ng/mL) [15]	16.6
YT (IL-2 2.5 ng/mL) [26]	8.98
[14]	0
[16]	0
[22]	1.91
[24]	0
[25]	0

— the supplement of paper PMC5908809
